Source: ChEMBL document CHEMBL2029348, “Synthesis, biological evaluation, and molecular docking studies of N,1,3-triphenyl-1H-pyrazole-4-carboxamide derivatives as anticancer agents” (Bioorg Med Chem Lett, 2012)
Activity calls are given as the source filed them. No cut-off for these calls is given here.

Experiments:
[1] = test system: HCT-116; experiment: Cytotoxicity against human HCT116 cells after 48 hrs by MTT assay; assay type: functional, cell-based; details: HCT-116, 48 h
[2] = test system: MCF7; experiment: Cytotoxicity against human MCF7 cells after 48 hrs by MTT assay; assay type: functional, cell-based; details: MCF7, 48 h
[3] = molecular target: T1, Aurora kinase A (Homo sapiens, UniProt O14965); experiment: Inhibition of human recombinant Aurora A kinase using biotinylated peptide substrate preincubated for 15 mins with compound measured after 30 mins by fluorescence analysis
T1 sequence (O14965 whole entry): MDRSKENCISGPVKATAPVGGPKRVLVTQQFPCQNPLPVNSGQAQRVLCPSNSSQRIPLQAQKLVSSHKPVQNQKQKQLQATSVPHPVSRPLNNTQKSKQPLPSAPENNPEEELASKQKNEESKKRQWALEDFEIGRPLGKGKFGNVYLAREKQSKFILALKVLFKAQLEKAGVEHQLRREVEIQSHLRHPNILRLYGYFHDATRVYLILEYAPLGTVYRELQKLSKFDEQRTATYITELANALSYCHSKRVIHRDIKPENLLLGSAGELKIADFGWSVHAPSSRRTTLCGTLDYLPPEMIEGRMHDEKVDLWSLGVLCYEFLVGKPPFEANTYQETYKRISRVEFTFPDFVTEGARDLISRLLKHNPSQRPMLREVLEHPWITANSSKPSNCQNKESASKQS

[4] = molecular target: T2, Aurora kinase A (Homo sapiens) (UniProt O14965); experiment: Inhibition of Aurora A kinase in human HCT116 cells at 0.5 to 2 uM by Western blot analysis; assay type: cell-based; details: HCT-116
T2 sequence (whole entry): T1 sequence (O14965 whole entry)

Compound	IC50 [1]	IC50 [2]	IC50 [3]	inhibition [4]
Cc1ccc(-c2nn(-c3ccccc3)cc2C(=O)Nc2ccc(Cl)cc2)cc1	3880 nM	4010 nM	4790 nM	–
Cc1ccc(-c2nn(-c3ccccc3)cc2C(=O)Nc2ccccc2)cc1	2360 nM	2450 nM	2650 nM	–
Cc1ccc(-c2nn(-c3ccccc3)cc2C(=O)Nc2ccc(Br)cc2)cc1	5350 nM	6080 nM	7320 nM	–
O=C(Nc1ccc(Br)cc1)c1cn(-c2ccccc2)nc1-c1ccc([N+](=O)[O-])cc1	4080 nM	5300 nM	5520 nM	–
CCOc1ccc(NC(=O)c2cn(-c3ccccc3)nc2-c2ccc(OC)cc2)cc1	970 nM	1100 nM	780 nM	–
O=C(Nc1ccc(Cl)cc1)c1cn(-c2ccccc2)nc1-c1ccc(Cl)cc1	2990 nM	3750 nM	3180 nM	–
Cc1cc(Nc2cc(N3CCN(C)CC3)nc(Sc3ccc(NC(=O)C4CC4)cc3)n2)n[nH]1 [TOZASERTIB]	–	380 nM	–	–
COc1ccc(-c2nn(-c3ccccc3)cc2C(=O)Nc2ccc(Br)cc2)cc1	5870 nM	8210 nM	12400 nM	–
CCOc1ccc(NC(=O)c2cn(-c3ccccc3)nc2-c2ccc(Cl)cc2)cc1	420 nM	560 nM	220 nM	–
O=C(Nc1ccc(Br)cc1)c1cn(-c2ccccc2)nc1-c1ccccc1	4470 nM	5750 nM	7250 nM	–
COc1ccc(NC(=O)c2cn(-c3ccccc3)nc2-c2ccc(OC)cc2)cc1	1520 nM	1770 nM	1620 nM	–
COc1ccc(NC(=O)c2cn(-c3ccccc3)nc2-c2ccc(Cl)cc2)cc1	1330 nM	1550 nM	840 nM	–
COc1ccc(-c2nn(-c3ccccc3)cc2C(=O)Nc2ccccc2)cc1	2540 nM	2530 nM	2780 nM	–
O=C(Nc1ccccc1)c1cn(-c2ccccc2)nc1-c1ccc([N+](=O)[O-])cc1	2010 nM	2260 nM	2100 nM	–
O=C(Nc1ccccc1)c1cn(-c2ccccc2)nc1-c1ccc(Cl)cc1	2180 nM	2340 nM	2100 nM	–
CCOc1ccc(NC(=O)c2cn(-c3ccccc3)nc2-c2ccc([N+](=O)[O-])cc2)cc1	390 nM	460 nM	160 nM	Active
O=C(Nc1ccc(Cl)cc1)c1cn(-c2ccccc2)nc1-c1ccc([N+](=O)[O-])cc1	2920 nM	3240 nM	3040 nM	–
COc1ccc(NC(=O)c2cn(-c3ccccc3)nc2-c2ccc(C)cc2)cc1	1450 nM	1620 nM	1450 nM	–
COc1ccc(-c2nn(-c3ccccc3)cc2C(=O)Nc2ccc(Cl)cc2)cc1	4060 nM	4350 nM	5590 nM	–
O=C(Nc1ccc(Cl)cc1)c1cn(-c2ccccc2)nc1-c1ccccc1	3520 nM	3860 nM	3570 nM	–
CCOc1ccc(NC(=O)c2cn(-c3ccccc3)nc2-c2ccccc2)cc1	620 nM	880 nM	420 nM	–
CCOc1ccc(NC(=O)c2cn(-c3ccccc3)nc2-c2ccc(C)cc2)cc1	780 nM	1030 nM	650 nM	–
COc1ccc(NC(=O)c2cn(-c3ccccc3)nc2-c2ccc([N+](=O)[O-])cc2)cc1	1020 nM	1210 nM	790 nM	–
COc1ccc(NC(=O)c2cn(-c3ccccc3)nc2-c2ccccc2)cc1	1350 nM	1710 nM	1330 nM	–
O=C(Nc1ccccc1)c1cn(-c2ccccc2)nc1-c1ccccc1	2310 nM	2340 nM	2340 nM	–
O=C(Nc1ccc(Br)cc1)c1cn(-c2ccccc2)nc1-c1ccc(Cl)cc1	4360 nM	5310 nM	5710 nM	–
